In ChEMBL document CHEMBL1143547, “Fluorescence resonance energy transfer studies of aminoglycoside binding to a T box antiterminator RNA” (Bioorg Med Chem Lett, 2005) one finds Frel and Kd data, which are given here for ten compounds.

By Kd is commonly meant the concentration at which binding is half-saturated. A high value points to a looser complex.

Each structure is given as a SMILES string.

One data set relates to Nucleic Acid. Briefly: Maximum Frel value for binding to 3'-Fl-AM1A-Rhd in Bacillus subtilis tyr.
The next data set concerns the target Bacillus subtilis. The data set is described as follows: Binding dissociation constant towards 3'-Fl-AM1A-Rhd in Bacillus subtilis tyrS. Type of data set: functional.

In turn, `NCCC(O)C(=O)N[C@@H]1C[C@H](N)[C@@H](O[C@H]2O[C@H](CN)[C@@H](O)[C@H](O)[C@H]2O)[C@H](O)[C@H]1O[C@H]1O[C@H](CO)[C@@H](O)[C@H](N)[C@H]1O` (single isomer, unassigned) [AMIKACIN] displayed a Frel in the data set with Nucleic Acid of 0.29. This compound also showed a Kd at Bacillus subtilis of 760 µM.
Taken in the same sequence, the figures for `[H]/N=C(/N)N[C@H]1[C@H](O)[C@@H](O)[C@H](O[C@@H]2O[C@@H](C)[C@](O)(C=O)[C@H]2O[C@@H]2O[C@@H](CO)[C@H](O)[C@@H](O)[C@@H]2NC)[C@@H](N/C(N)=N\[H])[C@@H]1O` (stereo in doubt) [STREPTOMYCIN] were 0.34 and 790 µM.
For `NC[C@H]1O[C@H](O[C@H]2[C@H](O)[C@@H](O[C@H]3O[C@H](CO)[C@@H](O)[C@H](N)[C@H]3O)[C@H](N)C[C@@H]2N)[C@H](N)[C@@H](O)[C@@H]1O` [BEKANAMYCIN], the Frel with Nucleic Acid came to 0.38. At Bacillus subtilis, this compound gave a Kd of 150 µM.
Taken in the same sequence, the figures for `NC[C@@H]1O[C@H](O[C@H]2[C@@H](O)[C@H](O[C@@H]3[C@@H](O)[C@H](N)C[C@H](N)[C@H]3O[C@H]3O[C@H](CN)[C@@H](O)[C@H](O)[C@H]3N)O[C@@H]2CO)[C@H](N)[C@@H](O)[C@@H]1O` [FRAMYCETIN] were 0.46 and 8.5 µM.
For `CN[C@@H]1[C@@H](O)[C@@H](O[C@@H]2[C@@H](O)[C@H](O[C@H]3O[C@H]([C@@H](C)NC)CC[C@H]3N)[C@@H](N)C[C@H]2N)OC[C@]1(C)O` [GENTAMICIN C1] the same measures were 0.8 and 120 µM.
In the data set on Nucleic Acid, `CN[C@@H]1[C@@H](O)[C@@H](O[C@@H]2[C@@H](O)[C@H](O[C@H]3O[C@H](C(C)N)CC[C@H]3N)[C@@H](N)C[C@H]2N)OC[C@]1(C)O` (stereo partly drawn) [GENTAMICIN C2] showed a Frel of 0.8. In addition, binding on Bacillus subtilis was put at a Kd of 120 µM.
`NC[C@@H]1O[C@@H](O[C@H]2[C@H](O)[C@@H](O[C@H]3O[C@H](CO)[C@@H](O)[C@H](N)[C@H]3O)[C@H](N)C[C@@H]2N)[C@@H](O)[C@H](O)[C@H]1O` [KANAMYCIN A] yielded a Kd at Bacillus subtilis of 210 µM.
In the case of `NC[C@H]1O[C@H](O[C@H]2[C@H](O)[C@@H](O[C@H]3O[C@H](CO)[C@@H](O)[C@H](N)[C@H]3O)[C@H](N)C[C@@H]2N)[C@H](O)[C@@H](O)[C@@H]1O` [KANAMYCIN A], the Frel with Nucleic Acid is 0.21.
Turning to `NC[C@@H]1O[C@H](O[C@H]2[C@@H](O)[C@H](O[C@@H]3[C@@H](O)[C@H](N)C[C@H](N)[C@H]3O[C@H]3O[C@H](CO)[C@@H](O)[C@H](O)[C@H]3N)O[C@@H]2CO)[C@H](N)[C@@H](O)[C@@H]1O` [PAROMOMYCIN], the Frel with Nucleic Acid was 0.41. The Kd on Bacillus subtilis amounted to 50 µM.
In turn, `NC[C@H]1O[C@H](O[C@H]2[C@H](O)[C@@H](O[C@H]3O[C@H](CO)[C@@H](O)[C@H](N)[C@H]3O)[C@H](N)C[C@@H]2N)[C@H](N)C[C@@H]1O` [TOBRAMYCIN] had a Frel in the data set on Nucleic Acid of 0.33. On Bacillus subtilis, this compound displayed a dissociation constant (Kd) of 38 µM.
